Like-named read-outs stand apart in the source and are kept apart here. Where only a bound is given, the exact number is not on record here.

One experiment deals with MV4;11 cells. The experiment can be described thus: Cell viability assay (CellTiter-Glo) in MV4;11 cells, alone or with gilteritinib. To be noted: Homo sapiens, MV4-11, 72 h, MV4;11 cells, three days, CellTiter-Glo, read-out: MV4. The class given is cell-based. A general note: Cellular ATP, detected with luciferase, serves as a proxy for viable cell number.
The next experiment concerns MOLM-13 cells. Briefly: Cell viability assay (CellTiter-Glo) in MOLM-13 cells, alone or with gilteritinib. The class given is cell-based. To be noted: Homo sapiens, MOLM-13, 72 h, MOLM-13 cells, three days, CellTiter-Glo.
Setting [1] is: compound alone (without gilteritinib), 11 IC50.
The mark [2] stands for this setting: with gilteritinib 10 nM, 11 IC50 gilteritinib.
The mark [3] stands for this setting: compound alone (without gilteritinib), read-out: MOLM-13 IC50.
Setting [4] is: with gilteritinib 20 nM, read-out: MOLM-13 IC50 gilteritinib.

With `O=C1CCC(N2C(=O)c3ccc(NCCC[C@H]4C[C@H](n5cc(-c6cccc(N7CCC(O)CC7)n6)cn5)C4)cc3C2=O)C(=O)N1` (stereo partly drawn) [GS-252, 2-(2,6-Dioxopiperidin-3-yl)-5-((3-(trans-3-(4-(6-(4-hydroxypiperidin-1-yl)pyridin-2-yl)-1H-pyrazol-1-yl)cyclobutyl)propyl)amino)isoindoline-1,3-dione], the IC50 in the experiment on MV4;11 cells (setting [1]) is 0.1 to 1 µM; in the experiment with MV4;11 cells (setting [2]) it was over 1 µM; in the experiment on MOLM-13 cells (setting [3]), over 1 µM; with MOLM-13 cells (setting [4]), over 1 µM.
For `Cc1ccnc(-c2cn([C@H]3C[C@H](CNc4ccc5c(c4)C(=O)N(C4CCC(=O)NC4=O)C5=O)C3)nc2C2CC2)c1` (stereo partly drawn) [GS-253, 5-(((trans-3-(3-Cyclopropyl-4-(4-methylpyridin-2-yl)-1H-pyrazol-1-yl)cyclobutyl)methyl)amino)-2-(2,6-dioxopiperidin-3-yl)isoindoline-1,3-dione], the IC50 with MV4;11 cells (setting [1]) is under 0.01 µM; with MV4;11 cells (setting [2]) it was under 0.01 µM; with MOLM-13 cells (setting [3]), 0.01 to 0.1 µM; with MOLM-13 cells (setting [4]) it was under 0.01 µM.
Turning to `COc1ccnc(-c2cn([C@H]3C[C@H](CNc4ccc5c(c4)C(=O)N(C4CCC(=O)NC4=O)C5=O)C3)nc2C2CC2)c1` (stereo partly drawn) [GS-254, 5-(((trans-3-(3-Cyclopropyl-4-(4-methoxypyridin-2-yl)-1H-pyrazol-1-yl)cyclobutyl)methyl)amino)-2-(2,6-dioxopiperidin-3-yl)isoindoline-1,3-dione], the IC50 was 0.01 to 0.1 µM in the experiment on MV4;11 cells (setting [1]), under 0.01 µM in the experiment on MV4;11 cells (setting [2]), 0.01 to 0.1 µM in the experiment with MOLM-13 cells (setting [3]) and under 0.01 µM in the experiment on MOLM-13 cells (setting [4]).
As for `O=C1CCC(N2C(=O)c3ccc(NC[C@H]4C[C@H](n5cc(-c6ccc(Cl)cn6)c(C6CC6)n5)C4)cc3C2=O)C(=O)N1` (stereo partly drawn) [GS-255, 5-(((trans-3-(4-(5-Chloropyridin-2-yl)-3-cyclopropyl-1H-pyrazol-1-yl)cyclobutyl)methyl)amino)-2-(2,6-dioxopiperidin-3-yl)isoindoline-1,3-dione], the IC50 with MV4;11 cells (setting [1]) was 0.01 to 0.1 µM; with MV4;11 cells (setting [2]), under 0.01 µM; in the experiment with MOLM-13 cells (setting [3]), 0.1 to 1 µM; in the experiment on MOLM-13 cells (setting [4]) it was under 0.01 µM.
With `Cc1ccc(-c2cn([C@H]3C[C@H](CNc4ccc5c(c4)C(=O)N(C4CCC(=O)NC4=O)C5=O)C3)nc2C2CC2)nc1` (stereo partly drawn) [GS-256, 5-(((trans-3-(3-Cyclopropyl-4-(5-methylpyridin-2-yl)-1H-pyrazol-1-yl)cyclobutyl)methyl)amino)-2-(2,6-dioxopiperidin-3-yl)isoindoline-1,3-dione], the IC50 in the experiment on MV4;11 cells (setting [1]) was 0.01 to 0.1 µM; in the experiment with MV4;11 cells (setting [2]), under 0.01 µM; in the experiment on MOLM-13 cells (setting [3]) it was 0.1 to 1 µM; in the experiment on MOLM-13 cells (setting [4]), under 0.01 µM.
Regarding `O=C1CCC(N2C(=O)c3ccc(NC[C@H]4C[C@H](n5cc(-c6cccc(N7CCC7)n6)c(C6CC6)n5)C4)cc3C2=O)C(=O)N1` (stereo partly drawn) [GS-257, 5-(((trans-3-(4-(6-(Azetidin-1-yl)pyridin-2-yl)-3-cyclopropyl-1H-pyrazol-1-yl)cyclobutyl)methyl)amino)-2-(2,6-dioxopiperidin-3-yl)isoindoline-1,3-dione], the IC50 was under 0.01 µM with MV4;11 cells (setting [1]), under 0.01 µM with MV4;11 cells (setting [2]), 0.01 to 0.1 µM with MOLM-13 cells (setting [3]) and under 0.01 µM with MOLM-13 cells (setting [4]).
For the compound `O=C1CCC(N2C(=O)c3ccc(NC[C@H]4C[C@H](n5cc(-c6cccc(NC7CCC7)n6)c(C6CC6)n5)C4)cc3C2=O)C(=O)N1` (stereo partly drawn) [GS-258, 5-(((trans-3-(4-(6-(Cyclobutylamino)pyridin-2-yl)-3-cyclopropyl-1H-pyrazol-1-yl)cyclobutyl)methyl)amino)-2-(2,6-dioxopiperidin-3-yl)isoindoline-1,3-dione], the IC50 was 0.1 to 1 µM with MV4;11 cells (setting [1]), 0.01 to 0.1 µM with MV4;11 cells (setting [2]), over 1 µM in the experiment with MOLM-13 cells (setting [3]) and 0.01 to 0.1 µM in the experiment on MOLM-13 cells (setting [4]).
As to `CN(C)c1cccc(-c2cn([C@H]3C[C@H](CNc4ccc5c(c4)C(=O)N(C4CCC(=O)NC4=O)C5=O)C3)nc2C2CC2)n1` (stereo partly drawn) [GS-259, 5-(((trans-3-(3-Cyclopropyl-4-(6-(dimethylamino)pyridin-2-yl)-1H-pyrazol-1-yl)cyclobutyl)methyl)amino)-2-(2,6-dioxopiperidin-3-yl)isoindoline-1,3-dione], the IC50 was under 0.01 µM in the experiment with MV4;11 cells (setting [1]), under 0.01 µM in the experiment on MV4;11 cells (setting [2]), 0.01 to 0.1 µM with MOLM-13 cells (setting [3]) and under 0.01 µM in the experiment on MOLM-13 cells (setting [4]).
On to `O=C1CCC(N2C(=O)c3ccc(NC[C@H]4C[C@H](n5cc(-c6cccc(NC7COC7)n6)c(C6CC6)n5)C4)cc3C2=O)C(=O)N1` (stereo partly drawn) [GS-260, 5-(((trans-3-(3-Cyclopropyl-4-(6-(oxetan-3-ylamino)pyridin-2-yl)-1H-pyrazol-1-yl)cyclobutyl)methyl)amino)-2-(2,6-dioxopiperidin-3-yl)isoindoline-1,3-dione], for which the IC50 is over 1 µM with MV4;11 cells (setting [1]), over 1 µM in the experiment with MV4;11 cells (setting [2]), 0.1 to 1 µM with MOLM-13 cells (setting [3]) and over 1 µM in the experiment with MOLM-13 cells (setting [4]).
Take `Cc1cccnc1-c1cn([C@H]2C[C@H](CNc3ccc4c(c3)C(=O)N(C3CCC(=O)NC3=O)C4=O)C2)nc1C1CC1` (stereo partly drawn) [GS-261, 5-(((trans-3-(3-Cyclopropyl-4-(3-methylpyridin-2-yl)-1H-pyrazol-1-yl)cyclobutyl)methyl)amino)-2-(2,6-dioxopiperidin-3-yl)isoindoline-1,3-dione]: the IC50 in the experiment with MV4;11 cells (setting [1]), in the experiment on MV4;11 cells (setting [2]), in the experiment with MOLM-13 cells (setting [3]) and in the experiment on MOLM-13 cells (setting [4]) was under 0.01 µM throughout.
As to `COc1cccnc1-c1cn([C@H]2C[C@H](CNc3ccc4c(c3)C(=O)N(C3CCC(=O)NC3=O)C4=O)C2)nc1C1CC1` (stereo partly drawn) [GS-262, 5-(((trans-3-(3-Cyclopropyl-4-(3-methoxypyridin-2-yl)-1H-pyrazol-1-yl)cyclobutyl)methyl)amino)-2-(2,6-dioxopiperidin-3-yl)isoindoline-1,3-dione], the IC50 in the experiment on MV4;11 cells (setting [1]), in the experiment with MV4;11 cells (setting [2]), in the experiment with MOLM-13 cells (setting [3]) and with MOLM-13 cells (setting [4]) was under 0.01 µM in each case.
With `CNc1cccc(-c2cn([C@H]3C[C@H](CNc4ccc5c(c4)C(=O)N(C4CCC(=O)NC4=O)C5=O)C3)nc2C2CC2)n1` (stereo partly drawn) [GS-263, 5-(((trans-3-(3-Cyclopropyl-4-(6-(methylamino)pyridin-2-yl)-1H-pyrazol-1-yl)cyclobutyl)methyl)amino)-2-(2,6-dioxopiperidin-3-yl)isoindoline-1,3-dione], the IC50 is 0.1 to 1 µM in the experiment with MV4;11 cells (setting [1]), 0.01 to 0.1 µM in the experiment with MV4;11 cells (setting [2]), 0.1 to 1 µM with MOLM-13 cells (setting [3]) and 0.01 to 0.1 µM in the experiment with MOLM-13 cells (setting [4]).
With `O=C1CCC(N2C(=O)c3ccc(NC[C@H]4C[C@H](n5cc(-c6cc(Cl)ccn6)c(C6CC6)n5)C4)cc3C2=O)C(=O)N1` (stereo partly drawn) [GS-264, 5-(((trans-3-(4-(4-Chloropyridin-2-yl)-3-cyclopropyl-1H-pyrazol-1-yl)cyclobutyl)methyl)amino)-2-(2,6-dioxopiperidin-3-yl)isoindoline-1,3-dione], the IC50 is 0.01 to 0.1 µM in the experiment with MV4;11 cells (setting [1]), under 0.01 µM in the experiment on MV4;11 cells (setting [2]), 0.01 to 0.1 µM in the experiment on MOLM-13 cells (setting [3]) and under 0.01 µM in the experiment on MOLM-13 cells (setting [4]).
On to `O=C1CCC(N2C(=O)c3ccc(NC[C@H]4C[C@H](n5cc(-c6ccncc6)c(C6CC6)n5)C4)cc3C2=O)C(=O)N1` (stereo partly drawn) [GS-265, 5-(((trans-3-(3-Cyclopropyl-4-(pyridin-4-yl)-1H-pyrazol-1-yl)cyclobutyl)methyl)amino)-2-(2,6-dioxopiperidin-3-yl)isoindoline-1,3-dione], for which the IC50 in the experiment on MV4;11 cells (setting [1]) is over 1 µM; in the experiment with MV4;11 cells (setting [2]) it was 0.1 to 1 µM; in the experiment with MOLM-13 cells (setting [3]) it was over 1 µM; in the experiment on MOLM-13 cells (setting [4]), 0.1 to 1 µM.
With `O=C1CCC(N2C(=O)c3ccc(NC[C@H]4C[C@H](n5cc(-c6cnc7c(N8CCOCC8)cccc7n6)c(C6CC6)n5)C4)cc3C2=O)C(=O)N1` (stereo partly drawn) [GS-266, 5-(((trans-3-(3-Cyclopropyl-4-(5-morpholinoquinoxalin-2-yl)-1H-pyrazol-1-yl)cyclobutyl)methyl)amino)-2-(2,6-dioxopiperidin-3-yl)isoindoline-1,3-dione], the IC50 in the experiment with MV4;11 cells (setting [1]), in the experiment with MV4;11 cells (setting [2]), in the experiment with MOLM-13 cells (setting [3]) and with MOLM-13 cells (setting [4]) was under 0.01 µM in each case.
With `CN1CCN(c2cccc3nc(-c4cn([C@H]5C[C@H](CNc6ccc7c(c6)C(=O)N(C6CCC(=O)NC6=O)C7=O)C5)nc4C4CC4)cnc23)CC1` (stereo partly drawn) [GS-267, 5-(((trans-3-(3-Cyclopropyl-4-(5-(4-methylpiperazin-1-yl)quinoxalin-2-yl)-1H-pyrazol-1-yl)cyclobutyl)methyl)amino)-2-(2,6-dioxopiperidin-3-yl)isoindoline-1,3-dione], the IC50 in the experiment with MV4;11 cells (setting [1]), in the experiment with MV4;11 cells (setting [2]), in the experiment with MOLM-13 cells (setting [3]) and in the experiment on MOLM-13 cells (setting [4]) was under 0.01 µM each time.
Consider `O=C1CCC(N2C(=O)c3ccc(NC[C@H]4C[C@H](n5cc(-c6cccnc6)c(C6CC6)n5)C4)cc3C2=O)C(=O)N1` (stereo partly drawn) [GS-268, 5-(((trans-3-(3-Cyclopropyl-4-(pyridin-3-yl)-1H-pyrazol-1-yl)cyclobutyl)methyl)amino)-2-(2,6-dioxopiperidin-3-yl)isoindoline-1,3-dione], for which the IC50 lay within 0.1 to 1 µM in the experiment on MV4;11 cells (setting [1]), 0.01 to 0.1 µM in the experiment on MV4;11 cells (setting [2]), 0.1 to 1 µM in the experiment on MOLM-13 cells (setting [3]) and 0.01 to 0.1 µM in the experiment with MOLM-13 cells (setting [4]).
For `O=C1CCC(N2C(=O)c3ccc(NC[C@H]4C[C@H](n5cc(-c6cccc(NC7CC(O)C7)n6)c(C6CC6)n5)C4)cc3C2=O)C(=O)N1` (stereo partly drawn) [GS-269, 5-(((trans-3-(3-Cyclopropyl-4-(6-((3-hydroxycyclobutyl)amino)pyridin-2-yl)-1H-pyrazol-1-yl)cyclobutyl)methyl)amino)-2-(2,6-dioxopiperidin-3-yl)isoindoline-1,3-dione], the IC50 in the experiment on MV4;11 cells (setting [1]) is over 1 µM; in the experiment with MV4;11 cells (setting [2]), 0.1 to 1 µM; in the experiment on MOLM-13 cells (setting [3]), over 1 µM; with MOLM-13 cells (setting [4]) it was over 1 µM.

Source of the values: US20240050428A1 (Cullgen (Shanghai), Inc., priority 2020, published 2024).
